# Square brackets hold non-standard residues; d marks the D form. Ends that are not written are not given here. Hyp = O=C(O)[C@@H]1C[C@@H](O)CN1; Aad = N[C@@H](CCCC(=O)O)C(=O)O; Cit = NC(=O)NCCC[C@H](N)C(=O)O; Nva = CCC[C@H](N)C(=O)O; Ac3c = NC1(C(=O)O)CC1
# Tests used:
# [1] = once per week; no reference given; cited from earlier work
# From the text: We investigated the antitumor efficacy of those two PDCs on xenografted mice in vivo.
# MCF-7 cells = assay: Clone formation experiment; type: cell-based, human; details: MCF-7, 200 cells per well, 1 week, crystal violet; performed three times
# Description: We seeded 200 cells per well in 6-well plates with culture medium. After 12 h, the cells were incubated with different agents for 1 week at 37 °C with 5% CO2. Then, we washed the wells with PBS, fixed the cells with methanol for 10 min and stained them with crystal violet at room temperature. Finally, we washed them with sterile water several times in order to obtain a clean background, and then, the colonies formed were photographed and statistically analyzed.
# [2] = molecular target: T1, FGFR2 extracellular motif protein (UniProt P21802 22-377); assay: ITC; ITC200, 25 °C, both dissolved in sterile water; 0.1 mM peptide in the sample cell, 0.001 mM FGFR protein in the syringe; 19 injections of 2 µL, 5 min apart; details: both partners purified
# T1 construct: fibroblast growth factor receptor 2 (FGFR2), recombinant, 'extracellular motif protein'; No catalogue number is printed; limits, isoform (IIIb or IIIc) and tag of the bought protein are unknown; also called FGFR2 protein; recombinant proteins of the FGFR2; source: bought: Sino Biological
# T1 sequence (P21802 22-377): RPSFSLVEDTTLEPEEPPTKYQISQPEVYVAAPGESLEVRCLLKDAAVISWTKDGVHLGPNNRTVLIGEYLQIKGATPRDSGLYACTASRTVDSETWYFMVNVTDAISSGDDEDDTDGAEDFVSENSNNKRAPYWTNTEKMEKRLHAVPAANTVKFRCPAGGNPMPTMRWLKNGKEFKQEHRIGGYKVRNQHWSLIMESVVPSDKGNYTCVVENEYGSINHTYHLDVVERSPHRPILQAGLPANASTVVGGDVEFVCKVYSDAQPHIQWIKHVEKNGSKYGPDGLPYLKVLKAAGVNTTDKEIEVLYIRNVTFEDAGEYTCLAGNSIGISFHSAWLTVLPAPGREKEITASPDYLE
Ka [2] [M⁻¹],Kd [2] [nM],Molecule,tolerated concentrations in mice [1] [mg/kg],concentration that completely suppresses clone formation (MCF-7 cells) [µg/mL]
–,–,"COc1cc2cc(c1Cl)N(C)C(=O)C[C@H](OC(=O)[C@H](C)N(C)C(=O)CCS)[C@]1(C)O[C@H]1[C@H](C)[C@@H]1C[C@@](O)(NC(=O)O1)[C@H](OC)/C=C/C=C(\C)C2 [DM1, reference compound]",1.0 to 1.5,0.001
1.04e+09,0.96,[Hyp][dL][Cit][dD][dN][dK][Ac3c][Nva][Aad] [LLC2B],–,–
